According to patent publication EP1001761B1, “USE OF CHOL[…] TREATING ATTENTION DEFICIT DISORDERS” (priority 1997, dated 1999):
Where a name gives a salt, the structure may show the parent alone.

Key:
solubility in water = type: physicochemical; conditions: room temperature
Experimental: Galantamine and its acid addition salts form crystals. […] If necessary, pharmaceutically-acceptable suspension aids may be employed. Typically, such a suspension will be employed at a concentration of 0.1-50 mg/ml, such as 1-50 mg/ml, more commonly 5-40 mg/ml, for example, 5-30 mg/ml or 10-40 mg/ml, such as 10-30 mg/ml, especially 20-30 mg/ml of galantamine.

patients with ADD = test: treatment of two ADD patients, measured by ANT (Amsterdam Neuropsychological Tests), reaction times for different tasks; type: in vivo; conditions: for After: mean / After: miss (Missed task) / After: Fa (Failed attempt): after treatment
Source text: The protocol in this case is first a baseline testing before medication and retesting after 2 days on medication and then after a week repeated testing. Ecological scales were also used before and are now being evaluated after one week after two weeks etc. for a treatment of one month duration.

| Compound | solubility in water (solubility in water) | After: mean (patients with ADD; Patient A, task Baseline) [ms] | After: mean (patients with ADD; Patient A, task Focused Att.) [ms] | After: miss (Missed task) (patients with ADD; Patient A, task Focused Att.) | After: Fa (Failed attempt) (patients with ADD; Patient A, task GoNoGo) | After: mean (patients with ADD; Patient A, task GoNoGo) [ms] | After: miss (Missed task) (patients with ADD; Patient A, task GoNoGo) | After: Fa (Failed attempt) (patients with ADD; Patient A, task Sustained Att.) | After: mean (patients with ADD; Patient A, task Sustained Att.) [ms] | After: miss (Missed task) (patients with ADD; Patient A, task Sustained Att.) | After: mean (patients with ADD; Patient B, task Baseline) [ms] | After: mean (patients with ADD; Patient B, task Focused Att.) [ms] | After: miss (Missed task) (patients with ADD; Patient B, task Focused Att.) | After: Fa (Failed attempt) (patients with ADD; Patient B, task GoNoGo) | After: mean (patients with ADD; Patient B, task GoNoGo) [ms] | After: miss (Missed task) (patients with ADD; Patient B, task GoNoGo) | After: Fa (Failed attempt) (patients with ADD; Patient B, task Sustained Att.) | After: mean (patients with ADD; Patient B, task Sustained Att.) [ms] | After: miss (Missed task) (patients with ADD; Patient B, task Sustained Att.) | improvement in attention (reduction in time to complete certain tasks and with fewer errors), normalized data, error analysis (patients with ADD; two patients, 2.5 mg 3 times a day) |
| --- | --- | --- | --- | --- | --- | --- | --- | --- | --- | --- | --- | --- | --- | --- | --- | --- | --- | --- | --- | --- |
| COc1ccc2c3c1O[C@H]1C[C@@H](O)C=C[C@@]31CCN(C)C2 [galantamine] | only sparingly soluble | 727 | 1352 | 0 | 2 | 655 | 1 | 6 | 1222 | 4 | 780 | 1166 | 3 | 3 | 766 | 3 | 50 | 1152 | 20 | – |
| COc1ccc2c3c1O[C@H]1C[C@@H](O)C=C[C@@]31CCN(C)C2 [galantamine hydrobromide] | – | – | – | – | – | – | – | – | – | – | – | – | – | – | – | – | – | – | – | over 2.5 standard deviations |
